Active and inactive are the calls of the source. No cut-off for these calls is given here.
Columns and labels:
Cannabinoid receptor 2 [1] = target: T1, Cannabinoid receptor 2 (Homo sapiens, UniProt P34972); assay: Antagonist activity at human CB2 Receptor expressed in CHO cell membranes measured after 24 hrs by HTRF assay; type: functional, Cell membrane
Cannabinoid receptor 1 [2] = target: T2, Cannabinoid receptor 1 (Homo sapiens, UniProt P21554); assay: Antagonist activity at human CB1 Receptor expressed in CHO cell membranes measured after 24 hrs by HTRF assay; type: functional, Cell membrane
T2 sequence (P21554 whole entry): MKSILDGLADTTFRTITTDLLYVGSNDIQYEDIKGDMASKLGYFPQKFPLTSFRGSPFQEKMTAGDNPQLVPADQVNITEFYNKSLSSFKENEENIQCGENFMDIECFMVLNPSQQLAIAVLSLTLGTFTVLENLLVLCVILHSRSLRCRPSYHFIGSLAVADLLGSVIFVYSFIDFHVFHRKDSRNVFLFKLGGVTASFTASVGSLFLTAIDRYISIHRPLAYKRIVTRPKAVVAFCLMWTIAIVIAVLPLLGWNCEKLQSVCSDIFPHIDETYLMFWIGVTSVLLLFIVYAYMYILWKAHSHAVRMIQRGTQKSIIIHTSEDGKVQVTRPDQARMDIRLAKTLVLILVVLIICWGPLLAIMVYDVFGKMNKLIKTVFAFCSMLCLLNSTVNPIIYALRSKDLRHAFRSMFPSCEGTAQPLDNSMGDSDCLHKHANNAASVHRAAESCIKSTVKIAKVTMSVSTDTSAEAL

Cannabinoid receptor 1 [3] = target: T2, Cannabinoid receptor 1; assay: Antagonist activity at human CB1 Receptor expressed in CHO-K1 cells assessed as reduction in CP55940-induced ERK1/2 phosphorylation measured Western blot analysis; type: functional, cell-based
Cannabinoid receptor 2 [4] = target: T1, Cannabinoid receptor 2; assay: Antagonist activity at human CB2 Receptor expressed in CHO-K1 cells assessed as reduction in CP55940-induced ERK1/2 phosphorylation measured Western blot analysis; type: functional, cell-based; details: filed as antagonist

T1 sequence (P34972 whole entry): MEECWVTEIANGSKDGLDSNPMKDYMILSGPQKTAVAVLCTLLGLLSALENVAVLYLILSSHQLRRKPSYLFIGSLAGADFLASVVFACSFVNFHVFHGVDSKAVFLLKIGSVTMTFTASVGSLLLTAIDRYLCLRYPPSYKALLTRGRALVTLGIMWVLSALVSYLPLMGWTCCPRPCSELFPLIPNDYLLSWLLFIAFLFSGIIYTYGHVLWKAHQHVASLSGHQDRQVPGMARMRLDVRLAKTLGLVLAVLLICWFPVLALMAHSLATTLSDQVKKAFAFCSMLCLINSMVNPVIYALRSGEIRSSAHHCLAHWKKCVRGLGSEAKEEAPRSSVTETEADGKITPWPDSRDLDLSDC

| SMILES | IC50 (Cannabinoid receptor 2 [1]) [µM] | IC50 (Cannabinoid receptor 1 [2]) [µM] | Activity (Cannabinoid receptor 1 [3]) | Activity (Cannabinoid receptor 2 [4]) |
| --- | --- | --- | --- | --- |
| Cc1c(C(=O)Nc2ccccc2/N=N\c2ccccc2)nn(CCCCCO)c1-c1ccccc1 | 0.62 | – | – | – |
| Cc1c(C(=O)NCCCc2ccccc2/N=N\c2ccccc2)nn(CCCCCO)c1-c1ccccc1 | 1.3 | 3.9 | – | – |
| Cc1c(C(=O)NCCCc2ccc(/N=N\c3ccccc3)cc2)nn(CCCCCO)c1-c1ccccc1 | 3.5 | 5.4 | – | – |
| Cc1c(C(=O)NCCCc2cccc(/N=N\c3ccccc3)c2)nn(CCCCCO)c1-c1ccccc1 | 1.1 | 3.8 | – | – |
| Cc1c(C(=O)NCCCc2ccc(/N=N/c3ccccc3)cc2)nn(CCCCCO)c1-c1ccccc1 | – | 7.2 | – | – |
| Cc1c(C(=O)NCc2ccccc2/N=N/c2ccccc2)nn(CCCCCO)c1-c1ccccc1 | 3.2 | 1.6 | inactive | Active |
| Cc1c(C(=O)NCc2ccc(/N=N/c3ccccc3)cc2)nn(CCCCCO)c1-c1ccccc1 | – | 8.3 | – | – |
| Cc1c(C(=O)Nc2ccc(/N=N\c3ccccc3)cc2)nn(CCCCCO)c1-c1ccccc1 | 9 | – | – | – |
| Cc1c(C(=O)NCc2cccc(/N=N/c3ccccc3)c2)nn(CCCCCO)c1-c1ccccc1 | – | 9.4 | – | – |
| Cc1c(C(=O)NCCc2cccc(/N=N\c3ccccc3)c2)nn(CCCCCO)c1-c1ccccc1 | 1.6 | 3.3 | – | – |
| Cc1c(C(=O)NCc2ccc(/N=N\c3ccccc3)cc2)nn(CCCCCO)c1-c1ccccc1 | 6.9 | 4.1 | – | – |
| Cc1c(C(=O)NCCc2ccccc2/N=N\c2ccccc2)nn(CCCCCO)c1-c1ccccc1 | 0.36 | 1.7 | – | – |
| Cc1c(C(=O)NCCCc2ccccc2/N=N/c2ccccc2)nn(CCCCCO)c1-c1ccccc1 | 3.4 | 9 | – | – |
| Cc1c(C(=O)Nc2cccc(/N=N\c3ccccc3)c2)nn(CCCCCO)c1-c1ccccc1 | 0.41 | 2.4 | – | – |
| Cc1c(C(=O)NCCc2ccccc2/N=N/c2ccccc2)nn(CCCCCO)c1-c1ccccc1 | 2.1 | 3.8 | – | – |
| Cc1c(C(=O)NCCc2ccc(/N=N\c3ccccc3)cc2)nn(CCCCCO)c1-c1ccccc1 | 5.2 | 3.3 | – | – |
| Cc1c(C(=O)Nc2cccc(/N=N/c3ccccc3)c2)nn(CCCCCO)c1-c1ccccc1 | 1.5 | 6.2 | – | – |
| Cc1c(C(=O)NCCc2ccc(/N=N/c3ccccc3)cc2)nn(CCCCCO)c1-c1ccccc1 | – | 7.9 | – | – |
| Cc1c(C(=O)NCCCc2cccc(/N=N/c3ccccc3)c2)nn(CCCCCO)c1-c1ccccc1 | 3.7 | 4.8 | – | – |
| Cc1c(C(=O)Nc2ccccc2/N=N/c2ccccc2)nn(CCCCCO)c1-c1ccccc1 | 5.5 | – | – | – |
| Cc1c(C(=O)NCc2cccc(/N=N\c3ccccc3)c2)nn(CCCCCO)c1-c1ccccc1 | 7 | 5.8 | – | – |
| Cc1c(C(=O)NCc2ccccc2/N=N\c2ccccc2)nn(CCCCCO)c1-c1ccccc1 | 0.07 | 1.1 | inactive | Active |
| Cc1c(C(=O)NCCc2cccc(/N=N/c3ccccc3)c2)nn(CCCCCO)c1-c1ccccc1 | 6.5 | 5.9 | – | – |
